Drawing on patent US20100227859A1, “TRICYCLIC COMPOUNDS AS MATRIX METALLOPROTEINASE INHIBITORS” (priority 2007, published 2010), this text covers IC50 for 33 molecules.

A value given as a limit tells only on which side of the number the result lay.

What is called IC50 is the concentration that inhibits the measured activity by half. Lower therefore signals greater potency in that assay.

The target of the experiment is purified human MMP-12 enzyme (Homo sapiens, UniProt P39900). Description: MMP-12 FRET assay. In kind it is biochemical. The conditions noted are these: substrate 20 μM, room temperature. In short, it runs like this: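 Initial fluorescence rate (325/395 nm) of cleavage of MCA-Pro-Leu-Gly-Leu-Dpa(DNP)-Ala-Arg, 20 μM final, was followed for 30 min at room temperature after a 30 min enzyme–compound preincubation. Buffer: 50 mM HEPES pH 7.4, 100 mM NaCl, 5 mM CaCl2, 0.005% Brij-35, with 10% final DMSO. IC50 came from a Hill-type fit of rate versus inhibitor concentration.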
Chain of purified human MMP-12 enzyme (P39900 106-470): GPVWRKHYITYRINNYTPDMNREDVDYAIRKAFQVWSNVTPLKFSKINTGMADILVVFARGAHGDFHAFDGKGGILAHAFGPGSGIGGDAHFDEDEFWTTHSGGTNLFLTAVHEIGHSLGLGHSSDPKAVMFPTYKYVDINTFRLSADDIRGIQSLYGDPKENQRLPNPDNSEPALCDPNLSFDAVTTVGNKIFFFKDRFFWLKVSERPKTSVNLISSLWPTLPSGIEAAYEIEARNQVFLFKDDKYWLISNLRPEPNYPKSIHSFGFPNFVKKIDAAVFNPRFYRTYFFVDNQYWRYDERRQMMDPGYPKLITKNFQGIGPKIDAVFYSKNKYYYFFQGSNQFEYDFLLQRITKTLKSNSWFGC
For the molecule `Cc1noc(C)c1-c1ccc2sc3cc(S(=O)(=O)N[C@H](C(=O)O)C(C)C)ccc3c2c1` [Compound 27, (S)-2-(8-(3,5-dimethylisoxazol-4-yl)dibenzo[b,d]thiophene-3-sulfonamido)-3-methylbutanoic acid], half-maximal inhibition (IC50) required 700 nM. Molecule `COc1ccc(-c2ccc3sc4cc(S(=O)(=O)N[C@H](C(=O)O)C(C)C)ccc4c3c2)cn1` [Compound 55, (S)-2-(8-(6-methoxypyridin-3-yl)dibenzo[b,d]thiophene-3-sulfonamido)-3-methylbutanoic acid] showed an IC50 of 65 nM. With `CC(C)[C@H](NS(=O)(=O)c1ccc2c(c1)oc1ccc(-c3nc4ccc(Cl)cc4s3)cc12)C(=O)O` [Compound 203, (S)-2-(8-(6-chlorobenzo[d]thiazol-2-yl)dibenzo[b,d]furan-3-sulfonamido)-3-methylbutanoic acid], the IC50 was determined as 4.1 nM. The molecule `COCC#Cc1ccc2c(c1)sc1cc(S(=O)(=O)N[C@H](C(=O)O)C(C)C)ccc12` [Compound 65, (S)-2-(7-(3-methoxyprop-1-ynyl)dibenzo[b,d]thiophene-3-sulfonamido)-3-methylbutanoic acid] came in with an IC50 of 4.6 nM.

On to `CC(C)[C@H](NS(=O)(=O)c1ccc2c(c1)oc1ccc(-c3c(C(F)(F)F)n[nH]c3-c3ccccc3)cc12)C(=O)O` [Compound 206, (S)-3-methyl-2-(8-(5-phenyl-3-(trifluoromethyl)-1H-pyrazol-4-yl)dibenzo[b,d]furan-3-sulfonamido)butanoic acid], for which the IC50 worked out at 110 nM. `CC(C)[C@H](NS(=O)(=O)c1ccc2c(c1)oc1ccc(-c3ccc(F)s3)cc12)C(=O)O` [Compound 124, (S)-2-(8-(5-fluorothiophen-2-yl)dibenzo[b,d]furan-3-sulfonamido)-3-methylbutanoic acid] registered an IC50 of under 1.5 nM.

`CC(C)[C@@H](NS(=O)(=O)c1ccc2oc3cc(-c4ccc(C(F)(F)F)cc4)ccc3c2c1)C(=O)O` [Compound 120, (R)-3-methyl-2-(7-(4-(trifluoromethyl)phenyl)dibenzo[b,d]furan-2-sulfonamido)butanoic acid] gave an IC50 of 2.2 nM. For the molecule `CCCc1ccc(-c2ccc3c(c2)oc2ccc(S(=O)(=O)N[C@@H](C(=O)O)C(C)C)cc23)s1` [Compound 243, (R)-3-methyl-2-(7-(5-propylthiophen-2-yl)dibenzo[b,d]furan-2-sulfonamido)butanoic acid], the IC50 stood at 1.5 nM.

Molecule `Cc1nc(CC(C)C)sc1-c1ccc2c(c1)oc1cc(S(=O)(=O)N[C@H](C(=O)O)C(C)C)ccc12` [Compound 235, (S)-2-(7-(2-isobutyl-4-methylthiazol-5-yl)dibenzo[b,d]furan-3-sulfonamido)-3-methylbutanoic acid] gave an IC50 of 11 nM. As for `CC(C)[C@H](NS(=O)(=O)c1ccc2c(c1)oc1ccc(-c3cccnc3)cc12)C(=O)O` [Compound 3, (S)-3-methyl-2-(8-(pyridin-3-yl)dibenzo[b,d]furan-3-sulfonamido)butanoic acid], the figure is under 1.5 nM; as for `CC(C)[C@@H](NS(=O)(=O)c1ccc2oc3cc(-c4nc5c(F)cccc5s4)ccc3c2c1)C(=O)O` [Compound 299, (R)-2-(7-(4-fluorobenzo[d]thiazol-2-yl)dibenzo[b,d]furan-2-sulfonamido)-3-methylbutanoic acid], 15 nM; as for `CCc1ccc(-c2ccc3c(c2)oc2ccc(S(=O)(=O)N[C@@H](C(=O)O)C(C)C)cc23)s1` [Compound 239, (R)-2-(7-(5-ethylthiophen-2-yl)dibenzo[b,d]furan-2-sulfonamido)-3-methylbutanoic acid], under 1.5 nM.

For `CC(C)[C@H](NS(=O)(=O)c1ccc2c(c1)oc1ccc(-c3noc(-c4ccc(F)cc4F)n3)cc12)C(=O)O` [Compound 269, (S)-2-(8-(5-(2,4-difluorophenyl)-1,2,4-oxadiazol-3-yl)dibenzo[b,d]furan-3-sulfonamido)-3-methylbutanoic acid], the IC50 was under 1.5 nM. For `CC(C)[C@H](NS(=O)(=O)c1ccc2c(c1)oc1cc(-c3nnn[nH]3)ccc12)C(=O)O` [Compound 250, (S)-2-(7-(1H-tetrazol-5-yl)dibenzo[b,d]furan-3-sulfonamido)-3-methylbutanoic acid], the IC50 came to 239 nM. `CC(C)C[C@H](NS(=O)(=O)c1ccc2c(c1)oc1ccc(-c3noc(C(C)(C)C)n3)cc12)C(=O)O` [Compound 252, (S)-2-(8-(5-tert-butyl-1,2,4-oxadiazol-3-yl)dibenzo[b,d]furan-3-sulfonamido)-4-methylpentanoic acid] showed an IC50 of 12 nM. With `CC(=O)c1ccc(-c2ccc3sc4cc(S(=O)(=O)N[C@H](C(=O)O)C(C)C)ccc4c3c2)s1` [Compound 47, (S)-2-(8-(5-acetylthiophen-2-yl)dibenzo[b,d]thiophene-3-sulfonamido)-3-methylbutanoic acid], inhibition was half-maximal at 2.9 nM (IC50).

In turn, `Cc1nnc(-c2ccc3c(c2)oc2ccc(S(=O)(=O)N[C@@H](C(=O)O)C(C)C)cc23)s1` [Compound 292, (R)-3-methyl-2-(7-(5-methyl-1,3,4-thiadiazol-2-yl)dibenzo[b,d]furan-2-sulfonamido)butanoic acid] displayed an IC50 of 43 nM. In turn, `CC(C)[C@H](NS(=O)(=O)c1ccc2c(c1)oc1cc(-c3ccc(C(C)(C)C)o3)ccc12)C(=O)O` [Compound 231, (S)-2-(7-(5-tert-butylfuran-2-yl)dibenzo[b,d]furan-3-sulfonamido)-3-methylbutanoic acid] showed an IC50 of 3.4 nM. In turn, `CCCc1ccc(-c2ccc3oc4cc(S(=O)(=O)N[C@H](C(=O)O)C(C)C)ccc4c3c2)s1` [Compound 197, (S)-3-methyl-2-(8-(5-propylthiophen-2-yl)dibenzo[b,d]furan-3-sulfonamido)butanoic acid] returned an IC50 of under 1.5 nM. In the case of `CC(C)[C@@H](NS(=O)(=O)c1ccc2oc3cc(-c4ccsc4)ccc3c2c1)C(=O)O` [Compound 97, (R)-3-methyl-2-(7-(thiophen-3-yl)dibenzo[b,d]furan-2-sulfonamido)butanoic acid] it was under 1.5 nM; in that of `CC(C)[C@H](NS(=O)(=O)c1ccc2c(c1)oc1ccc(-c3nc(C(F)(F)F)c(Cl)s3)cc12)C(=O)O` [Compound 200, (S)-2-(8-(5-chloro-4-(trifluoromethyl)thiazol-2-yl)dibenzo[b,d]furan-3-sulfonamido)-3-methylbutanoic acid], under 1.5 nM. As for `COC#Cc1ccc2oc3cc(S(=O)(=O)N[C@H](C(=O)O)C(C)C)ccc3c2c1` [Compound 38, (S)-2-(8-(methoxyethynyl)dibenzo[b,d]furan-3-sulfonamido)-3-methylbutanoic acid], the figure is under 1.5 nM; as for `CC(C)[C@H](NS(=O)(=O)c1ccc2c(c1)oc1ccc(-c3noc(-c4cccs4)n3)cc12)C(=O)O` [Compound 264, (S)-3-methyl-2-(8-(5-(thiophen-2-yl)-1,2,4-oxadiazol-3-yl)dibenzo[b,d]furan-3-sulfonamido)butanoic acid], under 1.5 nM; as for `CC(C)(C)c1nc(-c2ccc3c(c2)oc2ccc(S(=O)(=O)N[C@H](C(=O)O)C(C)(C)C)cc23)no1` [Compound 282, (S)-2-(7-(5-tert-butyl-1,2,4-oxadiazol-3-yl)dibenzo[b,d]furan-2-sulfonamido)-3,3-dimethylbutanoic acid], 150 nM. `CCCc1ccc(-c2ccc3c(c2)oc2ccc(S(=O)(=O)N[C@H](C(=O)O)C(C)C)cc23)s1` [Compound 246, (S)-3-methyl-2-(7-(5-propylthiophen-2-yl)dibenzo[b,d]furan-2-sulfonamido)butanoic acid]: 6.2 nM corresponded to half-maximal inhibition (IC50).

`Cc1nc(-c2ccc3c(c2)oc2cc(S(=O)(=O)N[C@H](C(=O)O)C(C)C)ccc23)no1` [Compound 156, (S)-3-methyl-2-(7-(5-methyl-1,2,4-oxadiazol-3-yl)dibenzo[b,d]furan-3-sulfonamido)butanoic acid] registered an IC50 of 6.9 nM. With `CC(C)[C@H](NS(=O)(=O)c1ccc2c(c1)oc1ccc(-c3cnc(Cl)s3)cc12)C(=O)O` [Compound 179, (S)-2-(8-(2-chlorothiazol-5-yl)dibenzo[b,d]furan-3-sulfonamido)-3-methylbutanoic acid], the IC50 is under 1.5 nM. With `CC(C)[C@H](NS(=O)(=O)c1ccc2c(c1)oc1ccc(C3=CCNCC3)cc12)C(=O)O` [Compound 70, (S)-3-methyl-2-(8-(1,2,3,6-tetrahydropyridin-4-yl)dibenzo[b,d]furan-3-sulfonamido)butanoic acid], the IC50 turned out to be 5.4 nM. Molecule `CC(C)[C@H](NS(=O)(=O)c1ccc2c(c1)oc1ccc(-c3nc4cc(F)c(F)cc4s3)cc12)C(=O)O` [Compound 220, (S)-2-(8-(5,6-difluorobenzo[d]thiazol-2-yl)dibenzo[b,d]furan-3-sulfonamido)-3-methylbutanoic acid] had an IC50 of under 1.5 nM. Turning to `CC(C)[C@H](NS(=O)(=O)c1ccc2c(c1)oc1ccc(-c3nc(-c4ccc(F)cc4)cs3)cc12)C(=O)O` [Compound 284, (S)-2-(8-(4-(4-fluorophenyl)thiazol-2-yl)dibenzo[b,d]furan-3-sulfonamido)-3-methylbutanoic acid], the IC50 stood at 18 nM. On to `CC(C)[C@@H](NS(=O)(=O)c1ccc2sc3cc(-c4nccs4)ccc3c2c1)C(=O)O` [Compound 285, (R)-3-methyl-2-(7-(thiazol-2-yl)dibenzo[b,d]thiophene-2-sulfonamido)butanoic acid], for which the midpoint of inhibition, the IC50, lay at 220 nM. As for `COc1ccc2nc(-c3ccc4oc5cc(S(=O)(=O)N[C@H](C(=O)O)C(C)C)ccc5c4c3)sc2c1` [Compound 208, (S)-2-(8-(6-methoxybenzo[d]thiazol-2-yl)dibenzo[b,d]furan-3-sulfonamido)-3-methylbutanoic acid], the IC50 was 2.7 nM.

As to `CC(C)C[C@@H](NS(=O)(=O)c1ccc2c(c1)oc1ccc(-c3noc(C(C)(C)C)n3)cc12)C(=O)O` [Compound 253, (R)-2-(8-(5-tert-butyl-1,2,4-oxadiazol-3-yl)dibenzo[b,d]furan-3-sulfonamido)-4-methylpentanoic acid], the midpoint of inhibition, the IC50, lay at 17 nM.
